From patent US20240002377A1, “PYRROLOPYRIDINE COMPOUND AND APPLICATION THEREOF” (MEDSHINE DISCOVERY INC., priority 2020, published 2024)

The compounds below were run against BTK^C481S (Homo sapiens (Human), UniProt Q06187, C481S) (assay: BTK enzyme activity assay (33P-ATP filter-binding)). Conditions: 200 μM ATP; 20 min pre-incubation, 2 h reaction at room temperature; radiometric filter-binding.
Assay type: biochemical
Method: Assay Example 1: BTK Enzyme Activity Assay
The specific assay process of BTK enzyme activity assay is as follows: Buffer solution: 20 mM hydroxyethyl piperazine ethanesulfonic acid (Hepes) (pH 7.5), 10 mM magnesium chloride, 1 mM ethylenebis(oxyethylenenitrilo)tetraacetic acid (EGTA), 0.02% polyoxyethylene dodecyl ether (Brij35), 0.02 mg/mL BSA, 0.1 mM sodium vanadate (Na3VO4), 2 mM dithiothreitol (DTT), 1% DMSO, 200 μM adenosine triphosphate (ATP). • 1. The substrate was prepared in freshly prepared reaction buffer; • 2. The required cofactor was added to the above-mentioned substrate solution; • 3. The kinase BTK^C481S sis was added to the above-mentioned substrate solution and mix well; • 4. The compound dissolved in DMSO was added to the kinase reaction mixture through Echo550 (Acoustic technology; nanolite range), and the mixture was incubated at room temperature for 20 minutes; • 5. ^33P-ATP (specific activity of radioactivity is 10 μCi/μL) was added to the reaction mixture to initiate the reaction; • 6. The mixture was incubated at room temperature for 2 hours; • 7. The radioactivity was detected by filter-binding method; • 8. Kinase activity data represented the percentage of remaining kinase activity in the assay sample compared to the vehicle (dimethyl sulfoxide) reaction.

Chain of BTK^C481S (Q06187 whole entry C481S): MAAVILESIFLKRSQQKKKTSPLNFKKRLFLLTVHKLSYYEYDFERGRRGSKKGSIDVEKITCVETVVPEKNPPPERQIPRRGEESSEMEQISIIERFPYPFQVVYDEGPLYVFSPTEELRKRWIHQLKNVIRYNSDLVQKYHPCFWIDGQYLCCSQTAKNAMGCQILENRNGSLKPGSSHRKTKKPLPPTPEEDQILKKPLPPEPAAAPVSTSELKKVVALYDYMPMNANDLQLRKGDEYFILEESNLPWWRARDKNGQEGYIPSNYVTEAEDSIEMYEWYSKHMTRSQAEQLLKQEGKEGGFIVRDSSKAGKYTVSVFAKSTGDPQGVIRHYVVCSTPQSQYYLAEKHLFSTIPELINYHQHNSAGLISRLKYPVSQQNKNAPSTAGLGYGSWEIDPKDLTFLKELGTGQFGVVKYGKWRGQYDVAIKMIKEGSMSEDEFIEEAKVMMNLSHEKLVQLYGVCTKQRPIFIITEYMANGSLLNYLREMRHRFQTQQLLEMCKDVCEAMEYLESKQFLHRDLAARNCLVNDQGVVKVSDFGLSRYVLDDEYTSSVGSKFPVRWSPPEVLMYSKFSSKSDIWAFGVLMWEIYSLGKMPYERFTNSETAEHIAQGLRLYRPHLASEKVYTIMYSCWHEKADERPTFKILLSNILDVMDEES

Structure (SMILES) | IC50 [nM]
N#Cc1cnc2[nH]cc(C(=O)c3ccc(Oc4cccc(F)c4)cc3Cl)c2c1N[C@@H]1CC[C@@H](CO)OC1 [Compound 1] | 58.9
N#Cc1cnc2[nH]cc(C(=O)c3ccc(Oc4ccccc4F)cc3Cl)c2c1N[C@@H]1CC[C@@H](CO)OC1 [Compound 2] | 11.7
CO[C@@H]1C[C@@H](CO)OC[C@@H]1Nc1c(C#N)cnc2[nH]cc(C(=O)c3ccc(Oc4ccccc4)cc3Cl)c12 [Compound 3] | 74.2
N#Cc1cnc2[nH]cc(C(=O)c3ccc(Oc4ccccc4)cc3Cl)c2c1N[C@@H]1CC[C@@H](CO)OC1 [Compound 4] | 7.4
O=C(c1ccc(Oc2ccccc2)cc1Cl)c1c[nH]c2ncc(F)c(N[C@@H]3CC[C@@H](CO)OC3)c12 [Compound 5] | 8.9
